Where two headings read alike, the source gives them in different places.
Key:
[1] = test system: Key Broadleaf Weed and Crop Species; assay: Post-emergent Test II herbicidal activity (Table 15); assay type: in vivo; conditions: post-emergence, 336 h, 14 d; for pest or weed control at 35 g/ha: 35 g ai/ha; for pest or weed control at 70 g/ha: 70 g ai/ha; for pest or weed control at 140 g/ha: 140 g ai/ha
Method in brief: (§1)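 Plants at first-second true leaf stage, grown 7-21 d in greenhouse (~15 h photoperiod, 23-29 °C day), were track-sprayed at 187 L/ha with compound in acetone/DMSO/water/isopropanol/crop oil/Triton X-155 at a high rate plus 1/2× to 1/16× dilutions. Injury scored visually after 14 d versus untreated plants, 0 (none) to 100% (complete kill).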

[2] = test system: Key Grass and Sedge Weeds as well as Grass Crops; assay: Post-emergent Test II herbicidal activity (Table 16); assay type: in vivo; conditions: post-emergence, 336 h, 14 days after application; for pest or weed control at 35 g/ha: 35 g ai/ha; for pest or weed control at 70 g/ha: 70 g ai/ha; for pest or weed control at 140 g/ha: 140 g ai/ha
Method in brief: as §1

[3] = Abutilon theophrasti, velvetleaf (Abutilon theophrasti), read-out: Visual Growth Reduction (%) 14 Days After Application, ABUTH
[4] = Amaranthus retroflexus, redroot pigweed (Amaranthus retroflexus), read-out: Visual Growth Reduction (%) 14 Days After Application, AMARE
[5] = Brassica napus, oilseed rape, canola (Brassica napus), read-out: Visual Growth Reduction (%) 14 Days After Application, BRSNN
[6] = Chenopodium album, lambsquarters (Chenopodium album), read-out: Visual Growth Reduction (%) 14 Days After Application, CHEAL
[7] = Euphorbia heterophylla, wild poinsettia (Euphorbia heterophylla), read-out: Visual Growth Reduction (%) 14 Days After Application, EPHHL
[8] = Helianthus annuus, sunflower (Helianthus annuus), read-out: Visual Growth Reduction (%) 14 Days After Application, HELAN
[9] = Cyperus esculentus, yellow nutsedge (Cyperus esculentus), read-out: Visual Growth Reduction (%) 14 Days After Application CYPES
[10] = Echinochloa crus-galli, barnyardgrass (Echinochloa crus-galli), read-out: Visual Growth Reduction (%) 14 Days After Application ECHCG
[11] = Oryza sativa, rice (Oryza sativa), read-out: Visual Growth Reduction (%) 14 Days After Application ORYSA
[12] = Setaria faberi, giant foxtail (Setaria faberi), read-out: Visual Growth Reduction (%) 14 Days After Application SETFA
[13] = Triticum aestivum, wheat, spring (Triticum aestivum), read-out: Visual Growth Reduction (%) 14 Days After Application TRZAS
[14] = Zea mays, maize, corn (Zea mays), read-out: Visual Growth Reduction (%) 14 Days After Application ZEAMX

SMILES: COc1c(N)nc(-c2ccc3ccsc3c2)nc1C(=O)O [Compound 3.21]
- pest or weed control at 35 g/ha [1, 3]: 0 to 29%
- pest or weed control at 70 g/ha [1, 3]: 30 to 44%
- pest or weed control at 140 g/ha [1, 3]: 45 to 59%
- pest or weed control at 35 g/ha [1, 4]: 95 to 100%
- pest or weed control at 70 g/ha [1, 4]: 95 to 100%
- pest or weed control at 140 g/ha [1, 4]: 95 to 100%
- pest or weed control at 35 g/ha [1, 5]: 75 to 84%
- pest or weed control at 70 g/ha [1, 5]: 85 to 94%
- pest or weed control at 140 g/ha [1, 5]: 95 to 100%
- pest or weed control at 35 g/ha [1, 6]: 85 to 94%
- pest or weed control at 70 g/ha [1, 6]: 85 to 94%
- pest or weed control at 140 g/ha [1, 6]: 95 to 100%
- pest or weed control at 35 g/ha [1, 7]: 75 to 84%
- pest or weed control at 70 g/ha [1, 7]: 85 to 94%
- pest or weed control at 140 g/ha [1, 7]: 95 to 100%
- pest or weed control at 35 g/ha [1, 8]: 60 to 74%
- pest or weed control at 70 g/ha [1, 8]: 60 to 74%
- pest or weed control at 140 g/ha [1, 8]: 75 to 84%
- pest or weed control at 35 g/ha [2, 9]: 0 to 29%
- pest or weed control at 70 g/ha [2, 9]: 0 to 29%
- pest or weed control at 140 g/ha [2, 9]: 0 to 29%
- pest or weed control at 35 g/ha [2, 10]: 75 to 84%
- pest or weed control at 70 g/ha [2, 10]: 85 to 94%
- pest or weed control at 140 g/ha [2, 10]: 85 to 94%
- pest or weed control at 35 g/ha [2, 11]: 0 to 29%
- pest or weed control at 70 g/ha [2, 11]: 30 to 44%
- pest or weed control at 140 g/ha [2, 11]: 30 to 44%
- pest or weed control at 35 g/ha [2, 12]: 0 to 29%
- pest or weed control at 70 g/ha [2, 12]: 30 to 44%
- pest or weed control at 140 g/ha [2, 12]: 60 to 74%
- pest or weed control at 35 g/ha [2, 13]: 30 to 44%
- pest or weed control at 70 g/ha [2, 13]: 30 to 44%
- pest or weed control at 140 g/ha [2, 13]: 45 to 59%
- pest or weed control at 35 g/ha [2, 14]: 30 to 44%
- pest or weed control at 70 g/ha [2, 14]: 60 to 74%
- pest or weed control at 140 g/ha [2, 14]: 75 to 84%
- melting point: 134 to 136 °C

SMILES: COC(=O)c1nc(-c2cc3sccc3cc2F)nc(N)c1OC [Compound 3.22]
- pest or weed control at 35 g/ha [1, 3]: 0 to 29%
- pest or weed control at 70 g/ha [1, 3]: 0 to 29%
- pest or weed control at 140 g/ha [1, 3]: 0 to 29%
- pest or weed control at 35 g/ha [1, 4]: 60 to 74%
- pest or weed control at 70 g/ha [1, 4]: 95 to 100%
- pest or weed control at 140 g/ha [1, 4]: 95 to 100%
- pest or weed control at 35 g/ha [1, 5]: 0 to 29%
- pest or weed control at 70 g/ha [1, 5]: 30 to 44%
- pest or weed control at 140 g/ha [1, 5]: 60 to 74%
- pest or weed control at 35 g/ha [1, 6]: 60 to 74%
- pest or weed control at 70 g/ha [1, 6]: 75 to 84%
- pest or weed control at 140 g/ha [1, 6]: 85 to 94%
- pest or weed control at 35 g/ha [1, 7]: 95 to 100%
- pest or weed control at 70 g/ha [1, 7]: 95 to 100%
- pest or weed control at 140 g/ha [1, 7]: 95 to 100%
- pest or weed control at 35 g/ha [1, 8]: 75 to 84%
- pest or weed control at 70 g/ha [1, 8]: 85 to 94%
- pest or weed control at 140 g/ha [1, 8]: 85 to 94%
- pest or weed control at 35 g/ha [2, 9]: 0 to 29%
- pest or weed control at 70 g/ha [2, 9]: 0 to 29%
- pest or weed control at 140 g/ha [2, 9]: 0 to 29%
- pest or weed control at 35 g/ha [2, 10]: 0 to 29%
- pest or weed control at 70 g/ha [2, 10]: 0 to 29%
- pest or weed control at 140 g/ha [2, 10]: 0 to 29%
- pest or weed control at 35 g/ha [2, 11]: 0 to 29%
- pest or weed control at 70 g/ha [2, 11]: 0 to 29%
- pest or weed control at 140 g/ha [2, 11]: 0 to 29%
- pest or weed control at 35 g/ha [2, 12]: 0 to 29%
- pest or weed control at 70 g/ha [2, 12]: 0 to 29%
- pest or weed control at 140 g/ha [2, 12]: 0 to 29%
- pest or weed control at 35 g/ha [2, 13]: 0 to 29%
- pest or weed control at 70 g/ha [2, 13]: 0 to 29%
- pest or weed control at 140 g/ha [2, 13]: 0 to 29%
- pest or weed control at 35 g/ha [2, 14]: 0 to 29%
- pest or weed control at 70 g/ha [2, 14]: 0 to 29%
- pest or weed control at 140 g/ha [2, 14]: 0 to 29%
- melting point: 168 °C
